Data: publication PMC10946398 (Journal of Medicinal Chemistry, 2024)
“And” between values parts separate entries of the source, which are not always exact repeats. Identical values can stand only once.

Assay: parallel artificial membrane permeability assay
Assay type: in vitro ADME
Conditions: 100 μM, phosphate buffer pH 6.4, 17 h, 37 °C, 150 rpm, triplicates

SMILES | PAMPA −LogPe
CC(C)C[C@@H]1NC(=O)[C@H](C)NC(=O)[C@H](Cc2ccccc2)NCc2ccc([nH]2)CNC1=O [14a, (5S,8S,11S)-11-Benzyl-5-isobutyl-8-methyl-1^1H-3,6,9,12-tetraaza-1(2,5)-pyrrolacyclotridecaphane-4,7,10-trione, 1H-Benzo[d][1,2,3]triazol-1-ol] | 7.72
CC(C)C[C@@H]1NC(=O)CN(C)C(=O)[C@H](Cc2ccccc2)NCc2ccc([nH]2)CNC1=O [14b, (5S,11S)-11-Benzyl-5-isobutyl-9-methyl-1^1H-3,6,9,12-tetraaza-1(2,5)-pyrrolacyclotridecaphane-4,7,10-trione] | 5.89 and 5.89 ± 0.08
CC(C)C[C@H]1C(=O)NCc2ccc([nH]2)CN[C@@H](Cc2ccccc2)C(=O)N[C@@H](C)C(=O)N1C [14c, (5S,8S,11S)-11-Benzyl-5-isobutyl-6,8-dimethyl-1^1H-3,6,9,12-tetraaza-1(2,5)-pyrrolacyclotridecaphane-4,7,10-trione, 1H-Benzo[d][1,2,3]triazol-1-ol] | 5.12
CC(C)C[C@@H]1NC(=O)[C@H](C)N(C)C(=O)[C@H](Cc2ccccc2)NCc2ccc([nH]2)CNC1=O [14d, (5S,8S,11S)-11-Benzyl-5-isobutyl-8,9-dimethyl-1^1H-3,6,9,12-tetraaza-1(2,5)-pyrrolacyclotridecaphane-4,7,10-trione] | 5.01
CC(C)C[C@@H]1NC(=O)[C@H](C)NC(=O)[C@H](Cc2ccccc2)N(C)Cc2ccc([nH]2)CNC1=O [14e, (5S,8S,11S)-11-Benzyl-5-isobutyl-8,12-dimethyl-1^1H-3,6,9,12-tetraaza-1(2,5)-pyrrolacyclotridecaphane-4,7,10-trione, 1H-Benzo[d][1,2,3]triazol-1-ol] | 5.11
CC(C)C[C@@H]1NC(=O)CN(C)C(=O)[C@H](Cc2ccccc2)NCc2ccc(n2C)CNC1=O [15b, (5S,11S)-11-Benzyl-5-isobutyl-1^1,9-dimethyl-1^1H-3,6,9,12-tetraaza-1(2,5)-pyrrolacyclotridecaphane-4,7,10-trione] | 5.93
CC(C)C[C@@H]1NC(=O)[C@H](C)N(C)C(=O)[C@H](Cc2ccccc2)NCc2ccc(n2C)CNC1=O [15d, (5S,8S,11S)-11-Benzyl-5-isobutyl-1^1,8,9-trimethyl-1^1H-3,6,9,12-tetraaza-1(2,5)-pyrrolacyclotridecaphane-4,7,10-trione] | 6.30
CC(C)C[C@@H]1NC(=O)CN(C)C(=O)[C@H](Cc2ccccc2)NCc2cc(c[nH]2)CNC1=O [16b, (5S,11S,Z)-11-Benzyl-5-isobutyl-9-dimethyl-1^1H-3,6,9,12-tetraaza-1(2,4)-pyrrolacyclotridecaphane-4,7,10-trione] | 6.76
CC(C)C[C@@H]1NC(=O)[C@H](C)N(C)C(=O)[C@H](Cc2ccccc2)NCc2cc(c[nH]2)CNC1=O [16d, (5S,8S,11S,Z)-11-Benzyl-5-isobutyl-8,9-dimethyl-1^1H-3,6,9,12-tetraaza-1(2,4)-pyrrolacyclotridecaphane-4,7,10-trione] | 7.53
CC(C)C[C@@H]1NC(=O)[C@H](C)N(C)C(=O)[C@H](Cc2ccccc2)NCc2cc(cn2C)CNC1=O [17d, (5S,8S,11S,Z)-11-Benzyl-5-isobutyl-1^1,8,9-trimethyl-1^1H-3,6,9,12-tetraaza-1(2,4)-pyrrolacyclotridecaphane-4,7,10-trione] | 6.61 ± 0.07
CC(C)C[C@@H]1NC(=O)CN(C)C(=O)[C@H](Cc2ccccc2)NCC2=CC=C(CNC1=O)O2 [18b, (5S,11S)-11-Benzyl-5-isobutyl-9-methyl-3,6,9,12-tetraaza-1(2,5)-furanacyclotridecaphane-4,7,10-trione] | 5.88 and 5.88 ± 0.04
CC(C)C[C@@H]1NC(=O)[C@H](C)NC(=O)[C@H](Cc2ccccc2)NCC2=CC=C(CN(C)C1=O)O2 [19a, (5S,8S,11S)-11-Benzyl-5-isobutyl-3,8-dimethyl-3,6,9,12-tetraaza-1(2,5)-furanacyclotridecaphane-4,7,10-trione] | 5.71 and 5.71 ± 0.03
